Assay results taken from ChEMBL document CHEMBL1153178, “Design and synthesis of a hybrid potentiator-corrector agonist of the cystic fibrosis mutant protein DeltaF508-CFTR” (Bioorg Med Chem Lett, 2010).
Activity calls are given as the source filed them. The rule behind the calls is not given here.

Tested on: Cystic fibrosis transmembrane conductance regulator (Homo sapiens), P13569 [F508del]
Test: Agonist activity at human CFTR deltaF508 mutant expressed in rat FRT cells assessed as forskolin-stimulated […] by patch-clamp method
Assay type: functional, cell-based

Cystic fibrosis transmembrane conductance regulator (Homo sapiens), P13569 [F508del], sequence (P13569 as listed by the source): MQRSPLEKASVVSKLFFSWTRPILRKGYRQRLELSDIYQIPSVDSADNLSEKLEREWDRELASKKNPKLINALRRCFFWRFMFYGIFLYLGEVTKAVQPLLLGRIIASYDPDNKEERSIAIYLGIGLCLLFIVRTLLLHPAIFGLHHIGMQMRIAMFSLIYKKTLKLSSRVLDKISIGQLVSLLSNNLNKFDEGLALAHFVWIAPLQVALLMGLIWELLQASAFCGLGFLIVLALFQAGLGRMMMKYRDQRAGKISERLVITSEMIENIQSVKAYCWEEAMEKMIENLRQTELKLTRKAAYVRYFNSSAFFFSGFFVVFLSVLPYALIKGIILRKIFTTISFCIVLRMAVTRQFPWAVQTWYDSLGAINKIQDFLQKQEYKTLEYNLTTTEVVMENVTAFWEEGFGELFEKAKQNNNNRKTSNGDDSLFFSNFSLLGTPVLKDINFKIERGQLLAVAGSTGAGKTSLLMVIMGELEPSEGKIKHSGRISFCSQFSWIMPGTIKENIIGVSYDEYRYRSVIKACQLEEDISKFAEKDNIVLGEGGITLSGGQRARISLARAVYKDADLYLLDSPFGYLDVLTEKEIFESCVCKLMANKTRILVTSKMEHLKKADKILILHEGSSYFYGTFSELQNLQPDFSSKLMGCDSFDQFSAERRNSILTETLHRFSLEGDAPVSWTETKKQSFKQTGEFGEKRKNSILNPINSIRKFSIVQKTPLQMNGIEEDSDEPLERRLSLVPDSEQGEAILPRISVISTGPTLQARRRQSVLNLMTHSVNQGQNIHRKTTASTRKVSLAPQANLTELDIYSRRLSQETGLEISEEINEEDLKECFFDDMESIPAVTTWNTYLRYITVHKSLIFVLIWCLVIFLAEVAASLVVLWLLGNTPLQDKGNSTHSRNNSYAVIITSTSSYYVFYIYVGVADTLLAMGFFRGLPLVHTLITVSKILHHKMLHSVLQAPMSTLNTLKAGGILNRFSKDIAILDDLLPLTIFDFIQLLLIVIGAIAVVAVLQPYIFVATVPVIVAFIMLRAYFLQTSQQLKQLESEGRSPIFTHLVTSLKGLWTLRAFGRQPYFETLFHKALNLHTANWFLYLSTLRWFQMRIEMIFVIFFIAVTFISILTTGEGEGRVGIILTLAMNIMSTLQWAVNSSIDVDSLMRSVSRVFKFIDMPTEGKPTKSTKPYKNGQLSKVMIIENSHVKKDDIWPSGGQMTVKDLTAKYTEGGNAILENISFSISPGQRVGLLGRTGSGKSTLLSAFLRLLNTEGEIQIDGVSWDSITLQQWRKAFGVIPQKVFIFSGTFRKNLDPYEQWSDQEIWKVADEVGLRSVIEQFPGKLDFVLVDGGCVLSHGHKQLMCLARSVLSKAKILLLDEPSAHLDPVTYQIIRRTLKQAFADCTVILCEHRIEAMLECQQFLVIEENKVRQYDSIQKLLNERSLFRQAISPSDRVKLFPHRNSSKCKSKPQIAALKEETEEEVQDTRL

Cc1nc(NC(=O)c2ccccc2)sc1-c1csc(Nc2cc(Cl)ccc2OCCOCCOCC(=O)OCc2ccc(NC(=O)[C@H](c3ccccc3)N(C)C(=O)Cc3c[nH]c4ccccc34)cc2)n1
Activity: inactive

CN(C(=O)Cc1c[nH]c2ccccc12)[C@H](C(=O)Nc1ccc(CO)cc1)c1ccccc1
Activity: Active

Cc1nc(NC(=O)c2ccccc2)sc1-c1csc(Nc2cc(Cl)ccc2OCCOCCOCC(=O)O)n1
Activity: Active
